Tested on: patients with Unstable angina/Non ST segment Elevation Myocardial infarction
Conditions: in vivo
Method: The following results are based on a randomized, double-blind triple-dummy trial to compare otamixaban to Unfractionated Heparin+eptifibatide, in patients with Unstable angina/Non ST segment Elevation Myocardial infarction scheduled to undergo an early invasive strategy.
Otamixaban arm: (Bol) 0.080 mg/Kg (I) 0.035 mg/Kg/h or 0.070 mg/Kg/h or 0.105 mg/Kg/h or 0.175 mg/Kg/h
UFH: 60 IU/Kg as IV bolus ([…]) followed by an IV infusion of 12 U/Kg/h (max 1000 IU/h) to maintain a PTT at 1.5 to 2.0 times control and at the time of the PCI additional boluses needed if the ACT is not in the range of 200-250 seconds. NB: In order for the study to be blinded, all aPTTs and ACTs performed in order to adjust Drug B (UFH/placebo) dosing will be performed using an encrypted Hemochron Signature Elite machine (or as a back-up, a local device with a third-party unblinded healthcare professional).
Eptifibatide: a single bolus of 180 mcg/kg followed by an infusion of 2 mcg/kg/min. In patients with CrCl<50 mL/min the infusion rate will be decreased to 1 mcg/kg/min.
Safety: • Non-CABG TIMI significant (Major+Minor) bleeding adjudicated by a blinded Clinical Events Adjudication Committee (CEAC) at Day 7. • Non-CABG TIMI Major bleeding adjudicated by a blinded Clinical Events Adjudication Committee (CEAC) at Day 7. • CABG-related bleeding adjudicated by a blinded Clinical Events Adjudication Committee (CEAC) at Day 7. • TIMI Major Bleeding (Non CABG+CABG) adjudicated by a blinded Clinical Events Adjudication Committee (CEAC) at Day 7. • Adjudicated TIMI Minor bleedings at Day 7 • Adjudicated Thrombotic and non-thrombotic procedural complications during the index PCI (including abrupt or threatened closure, new intracoronary thrombus, side branch closure, distal embolization, noreflow, thrombus in catheter or adherent to guidewire, coronary dissection with decreased flow, difficulty in reaching or crossing lesion, unplanned stent use, suboptimal results, coronary perforation, tamponade). All the above events will be adjudicated by a blinded Independent Adjudication Committee.

rates of TIMI major as compared to UFH+eptifibatide (0.105 mg/kg): numerically higher | rates of TIMI minimal as compared to UFH+eptifibatide (0.105 mg/kg): numerically higher | rates of TIMI minor (for patients without TIMI major) as compared to UFH+eptifibatide (0.105 mg/kg): lower | TIMI significant bleeding (0.175 mg/kg): excessive
SMILES: COC(=O)C(Cc1cccc(C(=N)N)c1)[C@@H](C)NC(=O)c1ccc(-c2cc[n+]([O-])cc2)cc1 (mixture of isomers) [Otamixaban, (2R,3R)-2-(3-Carbamimidoyl-benzyl)-3-[4-(1-oxy-pyridin-4-yl)benzoylamino]-butyric acid methyl ester]
bleeding rate among subgroups (age, baseline creatinine clearance, body weight) (human): did not show any increase of the bleeding rate
